Assays:
Homo sapiens [1] = organism: Homo sapiens; assay: Selectivity ratio of IC50 for human recombinant MMP13 catalytic domain to IC50 for human TACE catalytic domain
Collagenase 3 = Collagenase 3 (Homo sapiens, UniProt P45452); assay: inhibition of human recombinant MMP13 catalytic domain
RAW264.7 = assay: Inhibition of LPS-induced TNFalpha production in mouse RAW264.7 cells preincubated for 1 hrs before LPS challenge measured after 4 hrs by ELISA; type: functional, cell-based
Homo sapiens [2] = organism: Homo sapiens; assay: Selectivity ratio of IC50 for human recombinant MMP2 catalytic domain to IC50 for human TACE catalytic domain
Blood = assay: Inhibition of LPS-induced TNFalpha production in human whole blood preincubated for 1 hrs before LPS challenge measured after 4 hrs by ELISA; type: functional, tissue-based
[3] = biological target: 72 kDa type IV collagenase (Homo sapiens, UniProt P08253); assay: inhibition of human recombinant MMP2 catalytic domain
Sequence of 72 kDa type IV collagenase (P08253 whole entry, the tested form may be a part): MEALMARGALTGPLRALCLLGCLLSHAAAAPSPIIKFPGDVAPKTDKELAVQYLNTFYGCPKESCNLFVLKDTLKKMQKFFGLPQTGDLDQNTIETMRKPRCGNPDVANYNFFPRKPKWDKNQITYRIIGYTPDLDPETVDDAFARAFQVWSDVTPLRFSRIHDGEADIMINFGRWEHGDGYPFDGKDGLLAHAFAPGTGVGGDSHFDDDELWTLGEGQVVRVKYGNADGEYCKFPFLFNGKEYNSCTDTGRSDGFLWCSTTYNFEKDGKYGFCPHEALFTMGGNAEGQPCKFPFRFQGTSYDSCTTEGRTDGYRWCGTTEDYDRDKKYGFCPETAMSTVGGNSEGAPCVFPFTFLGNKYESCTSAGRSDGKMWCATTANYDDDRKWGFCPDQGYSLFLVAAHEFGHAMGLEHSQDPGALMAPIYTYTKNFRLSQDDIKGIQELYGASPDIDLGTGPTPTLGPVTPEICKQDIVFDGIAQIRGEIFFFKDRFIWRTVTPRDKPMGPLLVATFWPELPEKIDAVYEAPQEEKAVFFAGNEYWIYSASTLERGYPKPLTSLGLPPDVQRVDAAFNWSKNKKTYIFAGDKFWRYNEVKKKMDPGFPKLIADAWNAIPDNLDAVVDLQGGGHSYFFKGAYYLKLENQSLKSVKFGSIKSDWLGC

[4] = biological target: Disintegrin and metalloproteinase domain-containing protein 17 (Homo sapiens, UniProt P78536); assay: Inhibition of human TACE catalytic domain expressed in CHO cells by FRET assay; type: cell-based
Sequence of Disintegrin and metalloproteinase domain-containing protein 17 (P78536 whole entry, the tested form may be a part): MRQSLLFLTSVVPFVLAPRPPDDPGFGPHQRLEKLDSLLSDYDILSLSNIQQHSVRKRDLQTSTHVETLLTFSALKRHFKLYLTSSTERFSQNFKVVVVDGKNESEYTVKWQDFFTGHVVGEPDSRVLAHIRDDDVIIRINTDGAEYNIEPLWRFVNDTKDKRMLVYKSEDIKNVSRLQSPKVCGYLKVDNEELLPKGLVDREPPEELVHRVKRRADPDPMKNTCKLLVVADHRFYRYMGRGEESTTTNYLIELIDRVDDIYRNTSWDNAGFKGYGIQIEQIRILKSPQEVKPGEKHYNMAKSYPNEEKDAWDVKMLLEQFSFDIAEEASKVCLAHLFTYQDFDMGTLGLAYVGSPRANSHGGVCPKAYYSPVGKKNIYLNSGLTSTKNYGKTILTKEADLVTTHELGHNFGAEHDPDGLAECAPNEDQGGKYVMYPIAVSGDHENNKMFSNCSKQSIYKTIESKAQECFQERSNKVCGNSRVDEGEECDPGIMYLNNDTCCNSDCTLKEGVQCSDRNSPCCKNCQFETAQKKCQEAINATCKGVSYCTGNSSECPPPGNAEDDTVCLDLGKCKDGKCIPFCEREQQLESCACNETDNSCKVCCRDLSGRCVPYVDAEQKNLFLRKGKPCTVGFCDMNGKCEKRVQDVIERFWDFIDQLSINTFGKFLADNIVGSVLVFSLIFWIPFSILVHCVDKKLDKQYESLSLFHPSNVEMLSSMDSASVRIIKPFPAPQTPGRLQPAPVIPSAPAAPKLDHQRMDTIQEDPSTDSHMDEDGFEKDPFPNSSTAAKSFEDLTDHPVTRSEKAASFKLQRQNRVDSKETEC

[5] = biological target: Matrix metalloproteinase-9 (Homo sapiens, UniProt P14780); assay: inhibition of human recombinant MMP9 catalytic domain
Sequence of Matrix metalloproteinase-9 (P14780 whole entry, the tested form may be a part): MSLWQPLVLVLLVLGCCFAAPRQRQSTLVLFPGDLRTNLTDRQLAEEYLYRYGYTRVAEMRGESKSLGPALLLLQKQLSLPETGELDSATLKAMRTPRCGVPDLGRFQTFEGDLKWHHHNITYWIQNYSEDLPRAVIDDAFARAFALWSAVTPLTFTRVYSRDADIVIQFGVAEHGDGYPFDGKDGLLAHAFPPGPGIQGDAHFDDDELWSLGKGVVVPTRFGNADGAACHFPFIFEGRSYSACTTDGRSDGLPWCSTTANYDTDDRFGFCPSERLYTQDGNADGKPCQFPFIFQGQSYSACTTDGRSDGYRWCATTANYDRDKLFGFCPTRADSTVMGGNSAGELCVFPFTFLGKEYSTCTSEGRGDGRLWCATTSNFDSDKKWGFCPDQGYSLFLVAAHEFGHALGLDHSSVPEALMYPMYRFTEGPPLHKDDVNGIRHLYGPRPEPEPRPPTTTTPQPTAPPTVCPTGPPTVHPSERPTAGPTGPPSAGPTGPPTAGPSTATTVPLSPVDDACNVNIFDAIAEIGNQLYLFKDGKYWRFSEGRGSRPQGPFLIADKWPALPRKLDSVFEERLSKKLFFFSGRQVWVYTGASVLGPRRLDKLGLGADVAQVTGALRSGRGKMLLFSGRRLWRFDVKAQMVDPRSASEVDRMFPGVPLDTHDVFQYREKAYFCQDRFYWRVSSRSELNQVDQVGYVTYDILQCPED

[6] = Selectivity for TACE over MMP13
[7] = Selectivity for TACE over MMP9
[8] = Selectivity for TACE over MMP14
[9] = Selectivity for TACE over MMP1
[10] = Selectivity for TACE over MMP2

Structure (SMILES) | Ratio IC50 (Homo sapiens [1]) | IC50 (Collagenase 3) [nM] | IC50 (RAW264.7) [nM] | Ratio IC50 (Homo sapiens [2]) | IC50 (Blood) [nM] | IC50 [3] [nM] | IC50 [4] [nM] | IC50 [5] [µM] | Selectivity ratio [6] | Selectivity ratio [7] | Selectivity ratio [8] | Selectivity ratio [9] | Selectivity ratio [10]
Cc1cc(COc2ccc(S(=O)(=O)C3(C(=O)NO)CCN(C(=O)C(C)C)CC3)cc2)c2ccccc2n1 | > 90 | 415 | > 1000 | > 90 | 14000 | 1240 | 2 |  |  |  |  |  | 
CC#CCOc1ccc(S(=O)(=O)CC2(C(=O)NO)CCN(C(=O)c3ccccc3)CC2)cc1 |  | 59 | 400 |  | 2500 |  |  |  |  |  |  |  | 
Cc1cc(COc2ccc(S(=O)(=O)C3(C(=O)NO)CCNCC3)cc2)c2ccccc2n1 | > 90 | 8620 | 334 | > 90 | 2400 | > 15000 | 33 | > 12 |  |  |  |  | 
CC#CCOc1ccc(S(=O)(=O)C2(C(=O)NO)CCNCC2)cc1 | < 10 |  |  |  |  |  |  |  |  |  |  |  | 
CC#CCOc1ccc(S(=O)(=O)C2(C(=O)NO)CCN(C(=O)c3ccccc3)CC2)cc1 | < 10 |  |  |  |  |  |  |  |  |  |  |  | 
Cc1cc(COc2ccc(S(=O)(=O)C3(C(=O)NO)CCN(C)CC3)cc2)c2ccccc2n1 | > 90 | 1450 | 125 | > 90 | 2400 | 15100 | 11 |  |  |  |  |  | 
CC(=O)N1CCC(C(=O)NO)(S(=O)(=O)c2ccc(OCc3cc(C)nc4ccccc34)cc2)CC1 | > 90 | 1340 | 385 | > 90 | 1500 | 6960 | 1 |  |  |  |  |  | 
Cc1cc(COc2ccc(S(=O)(=O)C3(C(=O)NO)CCN(Cc4ccc(Cl)c(Cl)c4)CC3)cc2)c2ccccc2n1 |  | 80 | > 1000 |  | > 50000 | 145 | 65 |  |  |  |  |  | 
Cc1cc(COc2ccc(S(=O)(=O)C3(C(=O)NO)CCN(Cc4ccncc4)CC3)cc2)c2ccccc2n1 |  | 266 | 378 |  | 11000 | 855 | 9 |  |  |  |  |  | 
CC#CCOc1ccc(S(=O)(=O)C2(C(=O)NO)CCN(C(C)=O)CC2)cc1 | < 10 |  |  |  |  |  |  |  | < 5 |  |  |  | 
CC#CCOc1ccc(S(=O)(=O)CC2(C(=O)NO)CCNCC2)cc1 | > 1000 | 1900 |  | > 1000 |  | 1590 | 1 |  |  |  |  |  | 
Cc1cc(COc2ccc(S(=O)(=O)C3(C(=O)NO)CCN(C(=O)c4ccccc4)CC3)cc2)c2ccccc2n1 | > 90 | 204 | > 1000 | > 90 | 28000 | 516 | 1 |  |  |  |  |  | 
Cc1cc(COc2ccc(S(=O)(=O)C3(C(=O)NO)CCN(S(=O)(=O)C(C)C)CC3)cc2)c2ccccc2n1 | > 90 | 926 | > 1000 | > 90 | 14000 | 2140 | 10 |  |  |  |  |  | 
CC#CCOc1ccc(S(=O)(=O)CC2(C(=O)NO)CCN(C(=O)OC(C)(C)C)CC2)cc1 |  |  | 620 |  | 14000 |  |  |  |  |  |  |  | 
Cc1cc(COc2ccc(S(=O)(=O)C3(C(=O)NO)CCN(S(C)(=O)=O)CC3)cc2)c2ccccc2n1 | > 90 | 393 | 345 | > 90 | 2800 | 1740 | 1.2 |  |  |  |  |  | 
Cc1cc(COc2ccc(S(=O)(=O)C3(C(=O)NO)CCN(C(=O)c4ccncc4)CC3)cc2)c2ccccc2n1 | > 90 | 349 | 230 | > 90 | 1900 | 1090 | 2 |  |  |  |  |  | 
CC#CCOc1ccc(S(=O)(=O)CC2(C(=O)NO)CCN(C(C)=O)CC2)cc1 |  |  | 490 |  | 8700 |  | 2 |  | > 75 | > 75 | > 75 | > 75 | > 75
CC#CCOc1ccc(S(=O)(=O)C2(C(=O)NO)CCN(C(=O)OC(C)(C)C)CC2)cc1 | < 10 |  |  |  |  |  |  |  |  |  |  |  | 
CC#CCOc1ccc(S(=O)(=O)C2(C(=O)NO)CCN(Cc3ccc(Cl)c(Cl)c3)CC2)cc1 | < 10 | 72 |  |  |  |  | 149 |  |  |  |  |  | 
CCN(CC)C(=O)N1CCC(C(=O)NO)(S(=O)(=O)c2ccc(OCc3cc(C)nc4ccccc34)cc2)CC1 |  | 57 | > 1000 |  | > 50000 | 96 | 3 |  |  |  |  |  | 
Cc1cc(COc2ccc(S(=O)(=O)C3(C(=O)NO)CCN(C=O)CC3)cc2)c2ccccc2n1 | > 90 | 440 | 68 | > 90 | 1300 | 1400 | 2 | > 12 |  |  |  |  | 
CCNC(=O)N1CCC(C(=O)NO)(S(=O)(=O)c2ccc(OCc3cc(C)nc4ccccc34)cc2)CC1 | > 90 | 835 | 240 | > 90 | 2500 | 3610 | 2 |  |  |  |  |  | 
Cc1cc(COc2ccc(S(=O)(=O)C3(C(=O)NO)CCN(C(=O)OC(C)(C)C)CC3)cc2)c2ccccc2n1 | > 90 | 1110 | > 1000 | > 90 | > 50000 | 2670 | < 1 |  |  |  |  |  | 

Source: ChEMBL document CHEMBL1136975, “Synthesis and activity of quinolinylmethyl P1' alpha-sulfone piperidine hydroxamate inhibitors of TACE” (Bioorg Med Chem Lett, 2009)
